The test system of experiment [1] is substance P-induced contraction of the isolated guinea-pig ileum. As to the kind of experiment: Inhibitory effect on substance P-induced contraction of the isolated guinea-pig ileum. The following applies: Cavia porcellus, 5 min, substance P 0.01 μM, 5 min incubation, 30° C. Type of experiment: cell-based. On the procedure:
(§1) Inhibitory effect on substance P and histamine-induced contraction of the isolated guinea-pig ileum. Test compounds were dissolved and diluted in 100% dimethylsulfoxide (DMSO). Substance P (SP, Peninsula Laboratories or Peptide Institute) and histamine dihydrochloride (Wako Pure Chemicals) were dissolved and diluted in distilled water. […] Male Hartley guinea-pigs (300-400 g) were killed by a blow to the head. The ileum was removed and the ileal strips (15-20 mm) were suspended under 0.5 g tension in a 20 ml organ bath containing a modified Tyrode solution maintained at 30° C. and aerated with 95% O2 +5% CO2. Responses were recorded isotonically. Tissues were equilibrated for 15 min, and then the constant responses to histamine (1 μM) were obtained. Then substance P (0.01 μM) or histamine (0.1 μM)-induced contraction was obtained after 5 min incubation with or without the test compounds. Contractile responses to substance P or histamine with the test compound were expressed as a percentage of those without the test compound. IC50 was the concentration of the test compound required to prevent 50% of the contractile response elicited by substance P or histamine. Compound Nos. of the tested compounds correspond to the numbers of Preparation Examples.

In experiment [2] the test system is histamine-induced contraction of the isolated guinea-pig ileum. Kind of experiment: Inhibitory effect on histamine-induced contraction of the isolated guinea-pig ileum. Type of experiment: cell-based. The following applies: Cavia porcellus, 5 min, histamine 0.1 μM, 5 min incubation, 30° C. On the procedure:
as §1

In patent US6114369A, “Benzimidazole compound” (Nissan Chemical Industries, Ltd., priority 1997, dated 2000) one finds IC50 data, which are given here for 13 molecules.

Where a name gives a salt, the structure may show the parent alone.

For the molecule `CN(CCCN(C)c1nc2ccccc2n1Cc1ccc(F)cc1)C(=O)NCc1ccc(F)cc1` [Compound 9], the IC50 was 2700 nM in experiment [1] and 36 nM in experiment [2].

Regarding `CN(CCN(C)c1nc2ccccc2n1Cc1ccc(F)cc1)C(=O)NCc1cc(C(F)(F)F)cc(C(F)(F)F)c1` [Compound 2, N-methyl-N-(1-(4-fluorobenzyl)benzimidazol-2-yl)-N'-methyl-N'-(3,5-bis(trifluoromethyl)benzylaminocarbonyl)-1,2-ethylenediamine hydrochloride], the IC50 was 2800 nM in experiment [1] and 1100 nM in experiment [2].

Turning to `CN(CCCN(C)c1nc2ccccc2n1Cc1ccc(F)cc1)C(=O)NCc1ccccc1Cl` [Compound 6], the IC50 in experiment [1] was determined as 2700 nM; in experiment [2] it was 25 nM.

Consider `COc1ccccc1CNC(=O)N(C)CCCN(C)c1nc2ccccc2n1Cc1ccc(F)cc1` [Compound 5], for which the IC50 in experiment [1] turned out to be 3000 nM; in experiment [2] it was 29 nM.

As for `COc1cc(CNC(=O)N(C)CCCN(C)c2nc3ccccc3n2Cc2ccc(F)cc2)cc(OC)c1OC` [Compound 7], the IC50 in experiment [1] stood at 4000 nM; in experiment [2], 100 nM.

Turning to `CN(CCCN(C)c1nc2ccccc2n1Cc1ccc(F)cc1)C(=O)NCc1cc(C(F)(F)F)cc(C(F)(F)F)c1` [Compound 1, N-methyl-N-(1-(4-fluorobenzyl)benzimidazol-2-yl)-N'-methyl-N'-(3,5-bis(trifluoromethyl)benzylaminocarbonyl)-1,3-propylenediamine hydrochloride], the IC50 in experiment [1] worked out at 590 nM; in experiment [2] it was 290 nM.

For `CN(CCCN(C)c1nc2ccccc2n1Cc1ccc(F)cc1)C(=O)NCc1cc(Cl)cc(Cl)c1` [Compound 11], the IC50 in experiment [1] was 1500 nM; in experiment [2], 200 nM.

Turning to `COc1cccc(CNC(=O)N(C)CCCN(C)c2nc3ccccc3n2Cc2ccc(F)cc2)c1` [Compound 10], the results for the IC50 in experiment [1] and in experiment [2] were 2800 nM and 41 nM, respectively.

As to `Cc1ccc(CNC(=O)N(C)CCCN(C)c2nc3ccccc3n2Cc2ccc(F)cc2)cc1` [Compound 13], the IC50 in experiment [1] is 2800 nM; in experiment [2] it was 28 nM.

On to `CN(CCCN(C)C(=O)NCc1cc(C(F)(F)F)cc(C(F)(F)F)c1)Cc1nc2ccccc2n1Cc1ccc(F)cc1` [Compound 3, N-methyl-N-(1-(4-fluorobenzyl)benzimidazol-2-yl)methyl-N'-methyl-N'-(3,5-bis(trifluoromethyl)benzylaminocarbonyl)-1,3-propylenediamine hydrochloride], for which the IC50 in experiment [1] turned out to be 1400 nM; in experiment [2], 160 nM.

With `COc1ccc(CNC(=O)N(C)CCCN(C)c2nc3ccccc3n2Cc2ccc(F)cc2)cc1` [Compound 12], the IC50 came out at 4100 nM in experiment [1] and 44 nM in experiment [2].

For `CN(CCN(C)C(=O)NCc1cc(C(F)(F)F)cc(C(F)(F)F)c1)Cc1nc2ccccc2n1Cc1ccc(F)cc1` [Compound 4, N-methyl-N-(1-(4-fluorobenzyl)benzimidazol-2-yl)methyl-N'-methyl-N'-(3,5-bis(trifluoromethyl)benzylaminocarbonyl)-1,2-ethylenediamine hydrochloride], the IC50 in experiment [1] was 950 nM; in experiment [2], 100 nM.

On to `COc1cc(CNC(=O)N(C)CCCN(C)c2nc3ccccc3n2Cc2ccc(F)cc2)cc(OC)c1` [Compound 8], for which the IC50 is 3000 nM in experiment [1] and 280 nM in experiment [2].
